Test results as given in patent US12152012B2, “BRAG2 inhibitors and applications thereof” (CENTRE NATIONAL DE LA RECHERCHE SCIENTIFIQUE, priority 2018, dated 2024).
Entries after “also recorded” stand apart in the source; their conditions may differ.

What was measured:
ARNO (Sec7PH construct) = molecular target: T1, ARNO (Sec7PH construct) (Homo sapiens, UniProt Q99418); test: Nucleotide exchange kinetics on liposomes, activation of myristoylated Arf1; type: biochemical; conditions: 50 μM
T1 construct: BIG1^DcbHusSec7 (2-888) and ARNO^Sec7PH (50-399); made in house
T1 sequence (Q99418 50-399 isoform Q99418-2): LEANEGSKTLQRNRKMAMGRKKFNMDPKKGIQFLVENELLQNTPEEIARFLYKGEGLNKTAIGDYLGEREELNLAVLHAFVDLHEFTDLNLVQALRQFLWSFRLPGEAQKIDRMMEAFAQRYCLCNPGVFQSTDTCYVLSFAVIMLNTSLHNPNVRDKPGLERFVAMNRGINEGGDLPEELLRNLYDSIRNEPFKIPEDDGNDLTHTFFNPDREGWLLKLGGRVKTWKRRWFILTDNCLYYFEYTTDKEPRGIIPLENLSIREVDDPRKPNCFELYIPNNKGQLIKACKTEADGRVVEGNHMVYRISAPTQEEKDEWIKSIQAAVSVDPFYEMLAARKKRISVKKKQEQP
Description: The effect of Bragsin1 on the GEF efficiency of representative human ArfGEFs was evaluated by fluorescence kinetics using highly purified recombinant Arf GTPases and ArfGEFs. In a first series of assays, the Sec7 domains of BIG1, a Golgi ArfGEF, and of ARNO, EFA6a and BRAG2, which function at the plasma membrane, were used. When tested in solution, Bragsin1 had no effect on the activation of Arf1 by any of these Sec7 domains (FIGS. 2a and 14). Separately, we reconstituted the activation of myristoylated Arf1 by the same ArfGEFs on liposomes using ArfGEF constructs that contain a membrane-binding domain (DCB-HUS domain for BIG1, PH domains for the other GEFs). […] BRAG2 activates several Arf isoforms, including the plasma membrane-located Arf6 isoform. […] Bragsin1 and Bragsin2 have the same IC50 towards BRAG2 ([…]) according to dose-response analysis, confirming that Bragsin1 and Bragsin2 can be used interchangeably (FIG. 2d). The specific inhibition of BRAG2 by Bragsin in vitro predicts that BRAG2 silencing by siRNA should yield the same phenotype as treatment by the small molecule. Silencing of BRAG2 induced the redistribution of TGN46 into tubular or punctate structures, which phenocopied the effects induced by Bragsin (FIGS. 2e, 17 and 18). […] Silencing of ARNO, which is located at the plasma membrane, had no effect on TGN46 distribution. Overexpression of BRAG2-mCherry rescued the dispersion of the TGN46 structure induced by Bragsin, which is consistent with the silencing experiments (FIG. 2f). Bragsin is a specific inhibitor of the ArfGEF BRAG2 in vitro and in cells according to these experiments. These oexperiments identify a mechanism of inhibition that requires the membrane to manifests itself.
Bovine Δ17Arf1 and human Δ13Arf6, full-length myristoylated Arf1 and Arf6, human BRAG2^Sec7 (390-594) and BRAG2^Sec7PH (390-811), human EFA6^Sec7 (527-727) and EFA6^Sec7PHCt (527-1024), ARNO^Sec7 (50-256), BIG1^Sec7 (691-889), BIG1^DcbHusSec7 (2-888) and ARNO^Sec7PH (50-399) were expressed and purified as in (Benabdi, S. et al. Family-wide Analysis of the Inhibition of Arf Guanine Nucleotide Exchange Factors with Small Molecules: Evidence of Unique Inhibitory Profiles. Biochemistry 56, 5125-5133 (2017)) and references therein. BRAG2^Sec7PH mutants were purified as the wild type protein. Purification of human full-length Rac1 carrying a 6xHis tag in C-terminus and human TRIO^DH1PH1 (1232-1550) was described in (Peurois, F. et al. Characterization of the activation of small GTPases by their GEFs on membranes using artificial membrane tethering. Biochem J 474, 1259-1272 (2017)).
Lipids (of natural origin) were from Avanti Polar Lipids, except NBD-PE from Sigma. Liposomes were prepared as described in (Aizel, K. et al. Integrated conformational and lipid-sensing regulation of endosomal ArfGEF BRAG2. PLOS Biol 11, e1001652 (2013)) and extruded at 0.2 μm. For the Arf GEF specificity studies, liposomes contained 48% phosphatidylcholine (PC), 20% phosphatidylethanolamine (PE), 30% phosphatidylserine (PS) and 2% phosphatidylinositol-4,5-bisphosphate (PIP2). For Rac activation assay, liposomes contained 43% PC, 20% PE, 10% PS, 20% cholesterol, 2% PIP2, 5% NiNTA lipids and 0.2% NBD-PE. To exclude aggregation or disruption of the liposomes, their size distribution was controlled before and after experiments by dynamic light scattering as described in (Benabdi, S. et al. Biochemistry 56, 5125-5133 (2017)). Dose-response and flotation assays were carried out with liposomes containing 37.9% PC, 20% PE, 20% PS, 2% PIP2, 20% cholesterol and 0.1% NBD-PE. Flotation assays were carried out as in 18.
Nucleotide exchange kinetics were monitored by tryptophan fluorescence with excitation/emission wavelengths of 292/340 nm using a Cary Eclipse fluorimeter (Varian) at 37° C. and under continuous stirring as described in ^50,51. […]

[1] = molecular target: T2, BRAG2 binding to PIP2-containing liposomes (Homo sapiens, UniProt Q6DN90); test: Liposome flotation assay
T2 construct: human BRAG2^Sec7 (390-594) and BRAG2^Sec7PH (390-811); made in house
Description: FIG. 4. Bragsin is a non-competitive inhibitor of protein-membrane interactions • a. Bragsin1 (in violet) overlaps with the canonical phosphoinositide-binding site of the PH domain of BRAG2. IP3 (in red) is from the GRP1-IP3 complex (DiNitto, J. P. et al. Structural basis and mechanism of autoregulation in 3-phosphoinositide-dependent Grp1 family Arf GTPase exchange factors. Mol Cell 28, 569-83 (2007)). The position of the membrane is indicated by an arrow. • b. […] Binding was measured by liposome flotation. U: bottom fraction, containing unbound proteins; B: top fraction, containing liposome-bound proteins. […] Quantification is shown below. • c. Inhibition of BRAG2 by Bragsin2 is stronger in the presence of liposomes that contain PIP2 lipids. Kinetics were measured as in FIG. 2b.
Bragsin may partially overlap with a lipid bound at this position was predicted by comparison of the PH domain of a cytohesin ArfGEF with a phosphoinositide headgroup bound to the canonical lipid-binding site (DiNitto, J. P. et al. Mol Cell 28, 569-83 (2007))(FIG. 4a). Bragsin inhibition could act by blocking the interaction of BRAG2 with membranes. […] Alternatively, Bragsin may bind at the interface between the PH domain and the membrane if inhibition is sensitive to the lipid composition of the membrane. […]

T2 sequence (Q6DN90 512-933): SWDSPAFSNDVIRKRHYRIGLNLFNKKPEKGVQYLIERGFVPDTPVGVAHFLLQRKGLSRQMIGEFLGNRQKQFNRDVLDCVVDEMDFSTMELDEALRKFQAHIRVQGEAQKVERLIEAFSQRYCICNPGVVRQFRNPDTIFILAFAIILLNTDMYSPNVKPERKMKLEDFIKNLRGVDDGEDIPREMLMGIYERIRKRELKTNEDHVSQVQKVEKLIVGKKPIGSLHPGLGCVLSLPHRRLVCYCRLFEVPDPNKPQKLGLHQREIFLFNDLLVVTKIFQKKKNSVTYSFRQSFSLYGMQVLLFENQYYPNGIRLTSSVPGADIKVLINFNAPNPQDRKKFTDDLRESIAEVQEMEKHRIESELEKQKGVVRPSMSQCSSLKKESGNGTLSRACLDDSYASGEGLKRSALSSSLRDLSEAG

| Compound | Effect on ArfGEF activity on liposomes (ARNO (Sec7PH construct)) | Displacement of BRAG2 from PIP2-containing liposomes [1] |
| --- | --- | --- |
| Cc1ccc2oc(C(F)(F)F)cc(=O)c2c1[N+](=O)[O-] [Bragsin1, 6-methyl-5-nitro-2-(trifluoromethyl)-4H-chromen-4-one] | no effect | – |
| COc1ccc2oc(C(F)(F)F)cc(=O)c2c1[N+](=O)[O-] [Bragsin2, 6-methoxy-5-nitro-2-(trifluoromethyl)-4H-chromen-4-one] | – | did not displace; also recorded: does not impair binding |
